# Laboratory results from patent US20240360179A1, “STAPLED PEPTIDES AND METHODS THEREOF” (FOG PHARMACEUTICALS, INC., priority 2021, published 2024).
# Target: T1, full-length B-Catenin (Uniprot ID P35222) (Homo sapiens, UniProt P35222)
# T1 construct: 10 nM full-length B-Catenin (Uniprot ID P35222)
# T1 sequence (P35222 1-781): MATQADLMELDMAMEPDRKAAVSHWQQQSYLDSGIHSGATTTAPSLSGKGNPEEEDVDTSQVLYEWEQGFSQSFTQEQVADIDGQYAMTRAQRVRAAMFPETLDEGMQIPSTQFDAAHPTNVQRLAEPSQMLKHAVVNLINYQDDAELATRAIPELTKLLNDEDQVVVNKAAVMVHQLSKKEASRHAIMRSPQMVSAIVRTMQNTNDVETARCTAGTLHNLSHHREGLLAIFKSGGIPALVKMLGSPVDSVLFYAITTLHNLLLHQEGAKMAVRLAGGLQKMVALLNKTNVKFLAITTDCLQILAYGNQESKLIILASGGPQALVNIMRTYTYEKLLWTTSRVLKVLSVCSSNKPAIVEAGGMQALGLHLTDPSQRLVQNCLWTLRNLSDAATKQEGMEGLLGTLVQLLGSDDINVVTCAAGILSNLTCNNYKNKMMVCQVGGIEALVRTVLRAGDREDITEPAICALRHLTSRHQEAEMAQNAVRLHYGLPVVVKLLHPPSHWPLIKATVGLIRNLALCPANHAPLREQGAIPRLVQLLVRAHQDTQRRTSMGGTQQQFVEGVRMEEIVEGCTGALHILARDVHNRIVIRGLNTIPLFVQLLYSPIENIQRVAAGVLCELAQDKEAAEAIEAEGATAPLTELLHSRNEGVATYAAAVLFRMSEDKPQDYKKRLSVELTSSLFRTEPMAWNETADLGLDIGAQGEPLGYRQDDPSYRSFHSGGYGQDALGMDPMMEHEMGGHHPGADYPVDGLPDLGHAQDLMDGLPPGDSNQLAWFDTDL
# Experiment: not given
# Format: binding
# Settings: competition fluorescence polarization; read-out: beta-Catenin FP IC50
row,Substance,IC50 [nM]
1,4pentenyl-MePro-Asp-B5-Ala-Asp-3COOHF-Ala-Ala-Phe-PyrS2-Lys*3-3Thi-BztA-Ala-GlnR*3-NH2 [I-932],> 1000
2,4pentenyl-MePro-Asp-B5-Ala-Asp-3COOHF-Ala-Ala-Phe-PyrS2-Lys*3-3Thi-BztA-Ala-GlnR*3-NH2 [I-993],750 to 1000
3,4pentenyl-ThioPro-Asp-B5-Ala-Asp-3COOHF-Ala-Ala-Phe-PyrS2-Lys*3-3Thi-BztA-Ala-GlnR*3-NH2 [I-933],> 1000

# Same assay, conditions: read-out: beta-Catenin FP IC50
row,Substance,IC50 [nM]
1,Ac-PL3-Asp-Cha-B5-Asp-3COOHF-Ala-Ala-Phe-Lys*3-PyrS2-2F3MeF-BztA-GlnR*3-Ala-NH2 [I-98],< 50
2,Ac-PL3-Asp-Leu-B5-Asp-3COOHF-Ala-Ala-Phe-GlnR*3-PyrS2-3Thi-BztA-Lys*3-NH2 [I-16],< 50
3,Ac-PL3-Asp-Leu-B5-Asp-3COOHF-Ala-Ala-Phe-Lys*3-PyrS2-3Thi-BztA-GlnR*3-NH2 [I-12],< 50
4,Ac-PL3-Asp-Leu-B5-Asp-3COOHF-Ala-Ala-Phe-dLys*3-PyrS2-3Thi-BztA-GlnR*3-NH2 [I-10],< 50
5,Ac-PL3-Asp-Npg-B5-Asp-3COOHF-Acp-Ala-Phe-Lys*3-PyrS2-3Thi-BztA-GlnR*3-Ala-NH2 [I-385],< 50
6,Ac-PL3-Asp-Npg-B5-Asp-3COOHF-Aib-Ala-Phe-Lys*3-PyrS2-3Thi-BztA-GlnR*3-Leu-Glu-Ala-NH2 [I-495],< 50
7,Ac-PL3-Asp-Npg-B5-Asp-3COOHF-Aib-Ala-Phe-Lys*3-PyrS2-3Thi-BztA-GlnR*3-Leu-Ser-Ala-NH2 [I-497],< 50
8,Ac-PL3-Asp-Npg-B5-Asp-3COOHF-Aib-Ala-Phe-Lys*3-PyrS2-3Thi-BztA-GlnR*3-Leu-Thr-Ala-NH2 [I-499],< 50
9,Ac-PL3-Asp-Npg-B5-Asp-3COOHF-Aib-Ala-Phe-Lys*3-PyrS2-3Thi-BztA-GlnR*3-Leu-aThr-Ala-NH2 [I-501],< 50
10,Ac-PL3-Asp-Npg-B5-Asp-3COOHF-Aib-Ala-Phe-Lys*3-PyrS2-3Thi-BztA-GlnR*3-Thr-Aib-NH2 [I-412],< 50
11,Ac-PL3-Asp-Npg-B5-Asp-3COOHF-Aib-Ala-Phe-Lys*3-PyrS2-3Thi-BztA-GlnR*3-Val-Aib-NH2 [I-408],< 50
12,Ac-PL3-Asp-Npg-B5-Asp-3COOHF-Aib-Ala-Phe-Lys*3-PyrS2-3Thi-BztA-GlnR*3-dAla-Ser-NH2 [I-461],< 50
13,Ac-PL3-Asp-Npg-B5-Asp-3COOHF-Aib-Ala-Phe-Lys*3-PyrS2-3Thi-BztA-GlnR*3-dLeu-Ser-Leu-NH2 [I-468],< 50
14,Ac-PL3-Asp-Npg-B5-Asp-3COOHF-Aib-Ala-Phe-Lys*3-PyrS2-Phe-2NapA-GlnR*3-Ala-NH2 [I-484],< 50
15,Ac-PL3-Asp-Npg-B5-Asp-3COOHF-Aib-Ala-Phe-Lys*3-PyrS2-Phe-BztA-GlnR*3-Ala-NH2 [I-280],< 50
16,Ac-PL3-Asp-Npg-B5-Asp-3COOHF-Aib-Ala-Phe-Lys*3-PyrS2-nLeu-BztA-GlnR*3-Ala-NH2 [I-272],< 50
17,Ac-PL3-Asp-Npg-B5-Asp-3COOHF-Aib-Ala-Phe-TriAzLys*3-PyrS2-Phe-BztA-sAbu*3-Ala-NH2 [I-420],< 50
18,Ac-PL3-Asp-Npg-B5-Asp-3COOHF-Aib-Ala-nLeu-Lys*3-PyrS2-Phe-34ClF-GlnR*3-Ala-NH2 [I-480],< 50
19,Ac-PL3-Asp-Npg-B5-Asp-3COOHF-Cha-Ala-Phe-Lys*3-PyrS2-2F3MeF-BztA-GlnR*3-Ala-NH2 [I-102],< 50
20,Ac-PL3-Asp-Npg-B5-Asp-3COOHF-CyLeu-Ala-Phe-Lys*3-PyrS2-3Thi-BztA-GlnR*3-Ala-NH2 [I-383],< 50
21,Ac-PL3-Asp-Npg-B5-Asp-3COOHF-DaMeS-Ala-Phe-Lys*3-PyrS2-3Thi-BztA-GlnR*3-Ala-NH2 [I-437],< 50
22,Ac-PL3-Asp-Npg-B5-Asp-3COOHF-aMeDF-Ala-Phe-Lys*3-PyrS2-3Thi-BztA-GlnR*3-Ala-NH2 [I-457],< 50

# Same assay, conditions: read-out: beta-catenin TCF4 competition FP assay IC50
row,Substance,IC50 [nM]
1,Ac-PL3-Asp-Npg-B5-Asp-3COOHF-Aib-Ala-Phe-[oXyl]Cys-PyrS2-2F3MeF-BztA-Cys-Ala-NH2 [I-376],220
2,Ac-PL3-Asp-Npg-B5-Asp-3COOHF-Aib-Ala-Phe-[pXyl]Cys-PyrS2-2F3MeF-BztA-Cys-Ala-NH2 [I-377],93

# Target: T2, TCF/LEF luciferase reporter in DLD1 cells (Homo sapiens, UniProt P35222)
# T2 sequence (P35222 2-781): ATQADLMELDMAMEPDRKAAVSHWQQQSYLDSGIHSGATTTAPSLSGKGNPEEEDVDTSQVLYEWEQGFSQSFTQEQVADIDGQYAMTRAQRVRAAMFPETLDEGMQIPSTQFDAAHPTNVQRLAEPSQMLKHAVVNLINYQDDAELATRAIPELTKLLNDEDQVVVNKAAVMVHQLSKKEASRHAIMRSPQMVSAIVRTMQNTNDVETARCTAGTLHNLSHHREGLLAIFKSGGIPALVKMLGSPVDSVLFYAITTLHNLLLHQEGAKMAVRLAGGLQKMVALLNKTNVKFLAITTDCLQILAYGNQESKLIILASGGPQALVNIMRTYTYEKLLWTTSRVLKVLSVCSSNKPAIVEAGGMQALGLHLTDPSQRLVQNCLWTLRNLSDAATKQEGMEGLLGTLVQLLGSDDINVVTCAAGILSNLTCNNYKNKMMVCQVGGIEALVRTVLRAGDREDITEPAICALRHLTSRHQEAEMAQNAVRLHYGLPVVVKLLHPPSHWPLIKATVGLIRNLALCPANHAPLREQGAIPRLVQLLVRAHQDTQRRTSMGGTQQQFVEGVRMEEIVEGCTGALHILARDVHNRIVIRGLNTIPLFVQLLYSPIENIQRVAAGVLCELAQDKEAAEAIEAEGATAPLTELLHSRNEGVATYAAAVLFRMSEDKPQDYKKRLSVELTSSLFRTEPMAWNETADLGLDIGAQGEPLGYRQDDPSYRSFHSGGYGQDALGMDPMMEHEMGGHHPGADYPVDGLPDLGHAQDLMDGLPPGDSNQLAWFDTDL
# Experiment: TCF reporter assay in DLD1 cells (4% or 20% FBS)
# Format: cell-based
# Settings: read-out: DLD1 4% Abs IC50; DLD1 TCF reporter, 4% FBS
row,Substance,IC50 [nM]
1,Ac-PL3-Asn-Npg-B5-Asp-3COOHF-Aib-Ala-Phe-Lys*3-PyrS2-2F3MeF-BztA-GlnR*3-Leu-Ser-NH2 [I-144],1000 to 5000
2,Ac-PL3-Asn-Npg-B5-Asp-3COOHF-Ala-Ala-Phe-Lys*3-PyrS2-2F3MeF-BztA-GlnR*3-Leu-Ser-NH2 [I-142],> 5000
3,Ac-PL3-Asp-Cha-B5-Asp-3COOHF-Ala-Ala-Phe-Lys*3-PyrS2-2F3MeF-BztA-GlnR*3-Leu-NH2 [I-106],≤ 1000
4,Ac-PL3-Asp-Npg-B5-Asp-3COOHF-Ala-Ala-Phe-Lys*3-PyrS2-3Thi-BztA-hGlnR*3-Ala-NH2 [I-183],1000 to 5000
5,Ac-PL3-Asp-Npg-B5-Asp-3COOHF-Ala-Ala-Phe-iPrLys*3-PyrS2-3Thi-BztA-hGlnR*3-Ala-NH2 [I-187],> 5000

# Same assay, conditions: read-out: DLD1 4% Abs IC50; DLD1 TCF reporter, 4% FBS, absolute IC50
row,Substance,IC50 [nM]
1,Ac-PL3-Asp-Npg-B5-Asp-3COOHF-Aib-Ala-Phe-Lys*3-PyrS2-3Thi-BztA-GlnR*3-Glu-Ala-NH2 [I-342],≤ 1000
2,Ac-PL3-Asp-Npg-B5-Asp-3COOHF-Aib-Ala-Phe-sAla*3-PyrS2-3Thi-BztA-TriAzLys*3-Ala-NH2 [I-336],1000 to 5000
3,Ac-PL3-Asp-Npg-B5-Asp-3COOHF-Ala-Ala-Phe-TriAzLys*3-PyrS2-3Thi-BztA-sAla*3-Ala-NH2 [I-337],≤ 1000
4,Ac-PL3-Asp-Npg-B5-Asp-3COOHF-Ala-Ala-Phe-sAla*3-PyrS2-3Thi-BztA-TriAzLys*3-Ala-NH2 [I-338],≤ 1000

# Test system: COLO320DM cells
# Experiment: COLO320DM proliferation assay (CellTiter-Glo)
# Format: cell-based, human
# Settings: read-out: COLO320DM Proliferation Abs IC50
# Summary of the method: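 COLO320DM cells, 250 cells/well in RPMI-1640 with 4% FBS, attached 18-22 h, then exposed 96 h at 37 °C, 5% CO2 to 7-point 1/2 dilutions from 20 uM to 313 nM. Viability by CellTiter-Glo luminescence; IC50 derived from the dose curve.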
row,Substance,IC50 [nM]
1,Ac-PL3-Asp-Npg-B5-Asp-3COOHF-Aib-Ala-Phe-Lys*3-PyrS2-[MorphAc]2NH2F-BztA-GlnR*3-Ala-NH2 [I-1753],> 20000
2,Ac-PL3-Asp-Npg-B5-Asp-3COOHF-Aib-Ala-Phe-Lys*3-PyrS2-[Nic]2NH2F-BztA-GlnR*3-Ala-NH2 [I-1754],> 20000
3,Ac-PL3-Asp-Npg-B5-Asp-3COOHF-Aib-Ala-Phe-Lys*3-PyrS2-hCbA-BztA-GlnR*3-Val-Glu-Ala-NH2 [I-1345],≤ 10000
4,Ac-PL3-Asp-Npg-B5-Asp-3COOHF-Aib-Ala-Phe-Lys*3-PyrS2-hCha-34ClF-GlnR*3-Val-Glu-Ala-NH2 [I-1350],≤ 10000
5,Ac-PL3-Asp-Npg-B5-Asp-3COOHF-Aib-Ala-Phe-Lys*3-PyrS2-hCha-BztA-GlnR*3-Val-Glu-Ala-NH2 [I-1347],> 20000
6,Ac-PL3-Asp-Npg-B5-Asp-3COOHF-Aib-Ala-Phe-Lys*3-PyrS2-hCypA-34ClF-GlnR*3-Val-Glu-Ala-NH2 [I-1349],≤ 10000
7,Ac-PL3-Asp-Npg-B5-Asp-3COOHF-Aib-Ala-Phe-Lys*3-PyrS2-hCypA-BztA-GlnR*3-Val-Glu-Ala-NH2 [I-1346],≤ 10000
8,Ac-PL3-Asp-Npg-B5-Asp-3COOHF-Aib-Ala-Phe-dDab*3-PyrS2-3Thi-BztA-GlnR*3-Ala-Ala-Ala-Ala-Ala-NH2 [I-790],≤ 10000
9,Me2NAc-PL3-Asp-Npg-B5-Asp-3COOHF-Aib-Ala-Phe-Lys*3-PyrS2-3Thi-BztA-GlnR*3-Ala-NH2 [I-1078],> 20000
